Assay results from patent US20240368214A1, “POSITIVE NMDA-MODULATING COMPOUNDS AND METHODS OF USE THEREOF” (SAGE THERAPEUTICS, INC., priority 2021, published 2024).
pEC50: −log10 of the molar value. Like-named read-outs stand apart in the source and are kept apart here.

Target: T1, recombinant human GluN1/GluN2A receptor (Homo sapiens, UniProt Q05586+Q12879)
T1 construct: expressed in transfected cells; host or cells: HEK293, tetracycline-inducible expression
Test: Whole-cell patch clamp of mammalian cells (Syncropatch 384i), NMDA modulation
Format: cell-based
Conditions: HEK293 cells, human GluN1/GluN2A, glutamate 1 μM / glycine 100 μM, -80 mV, peak amplitude increase; for pEC50: read-out: EC50
Text: Whole-Cell Patch Clamp of Mammalian Cells (Syncropatch 384i (Nanion Technologies))
Whole-cell patch clamp electrophysiology was used to investigate the effects of compounds on GluN1/GluN2A N-methyl-D-aspartate (NMDA) glutamate receptors expressed in mammalian cells.
Human embryonic kidney (HEK293) cells expressing the recombinant human GluN1/GluN2A receptor under the control of a tetracycline-inducible expression system were used. Cells were maintained in Dulbecco's Modified Eagle's Medium (DMEM) with 1% glutamine, 10% Tetracycline System Approved fetal bovine serum (FBS), and NMDA inhibitors. Cells were cultured in a humidified 5% CO2 incubator at 37° C. Cells were induced with 50 ng/ml tetracycline 18-24 hours prior to testing. A cocktail of channel blockers was added to the media to prevent cell death.
Cells were 60-80% confluent at the time of harvest. Cells were detached from the flask TrypLE Enzyme Express (Thermo Fisher) at 37° C., and then cold extracellular solution was added to the flask, followed by incubation at 4° C. and then trituration of the cells. The cell solution was then placed on a shaker on the Syncropatch platform at 10° C. with a shake speed of a minimum 200 rpm for at least 30 minutes prior to testing.
Extracellular (EC) solution (in mM) —140 NaCl, 4 KCl, 5 CaCl2, 10 HEPES, 5 Glucose, pH 7.4 with NaOH. All external solutions contained 0.2% DMSO and 0.01% Kolliphor® EL (C5135, Sigma) throughout the experiment.
Intracellular (IC) solution (in mM) —120 CsF, 10 mM EGTA, 10 NaCl, 10 HEPES, 4 NaATP, 2 MgCl2, pH 7.2 with CsOH.
First, the DMSO Master Plate was prepared, in which the DMSO stock of each test compound was serially diluted in 100% DMSO to 1000× the final assay concentration. Immediately prior to assay testing, the compounds were diluted 1:100 by transferring solutions from the DMSO Mast Plate to the Intermediate Plate pre-filled with EC solution using a Biomek FX automated liquid handling system. Compounds were then diluted further with extracellular solution into two pre-incubation plates—1) compound from the Intermediate Plate was mixed with EC solution at a 1:5 dilution to create a 2× Compound Pre-Incubation Plate which was diluted a further 1:2 when added to the Syncropatch for the initial compound pre-incubation. And 2) compound from the Intermediate plate was mixed with EC solution at a 1:10 Dilution to create the 1× Compound Pre-Incubation Plate, which was used for subsequent compound pre-incubations. Finally, a Compound+Agonist Plate was prepared by mixing compound from the 2× Compound Pre-Incubation Plate with 2× concentration of co-agonists in a 1:1 ratio.
Each experiment sequentially included cell catching, sealing, whole-cell formation, liquid application, recording and data acquisition. Whole-cell patch clamp recordings were performed using multi-hole high resistance chips on the SyncroPatch 384i (Nanion Technologies). A steady-state voltage pulse at -80 mV was applied throughout the assay and a 10 second recording window was triggered around 1 second prior to application of co-agonists. Currents were leak corrected and sampled at 5 kHz.
A fast application was used, in which 5 μl co-agonist was rapidly applied at a speed of 30 μl/s and then rapidly removed from the well. To test for modulator activity, the co-agonists glutamate (1 μM) and glycine (100 μM) were applied three times to show activation reproducibility, followed by 120 seconds pre-incubation of test compound alone. The test compound was then re-applied in the presence of co-agonists two times. This was followed by application of the agonist alone, although test compound may not be fully washed from the well prior to this step. Finally, a saturating concentration of co-agonists (glutamate 100 μM/glycine 100 μM) was applied.
The voltage protocol generation data collection and analysis were performed on PatchControll384 and DataControll384. […]

T1 sequence (Q12879 23-1464, other chains not shown): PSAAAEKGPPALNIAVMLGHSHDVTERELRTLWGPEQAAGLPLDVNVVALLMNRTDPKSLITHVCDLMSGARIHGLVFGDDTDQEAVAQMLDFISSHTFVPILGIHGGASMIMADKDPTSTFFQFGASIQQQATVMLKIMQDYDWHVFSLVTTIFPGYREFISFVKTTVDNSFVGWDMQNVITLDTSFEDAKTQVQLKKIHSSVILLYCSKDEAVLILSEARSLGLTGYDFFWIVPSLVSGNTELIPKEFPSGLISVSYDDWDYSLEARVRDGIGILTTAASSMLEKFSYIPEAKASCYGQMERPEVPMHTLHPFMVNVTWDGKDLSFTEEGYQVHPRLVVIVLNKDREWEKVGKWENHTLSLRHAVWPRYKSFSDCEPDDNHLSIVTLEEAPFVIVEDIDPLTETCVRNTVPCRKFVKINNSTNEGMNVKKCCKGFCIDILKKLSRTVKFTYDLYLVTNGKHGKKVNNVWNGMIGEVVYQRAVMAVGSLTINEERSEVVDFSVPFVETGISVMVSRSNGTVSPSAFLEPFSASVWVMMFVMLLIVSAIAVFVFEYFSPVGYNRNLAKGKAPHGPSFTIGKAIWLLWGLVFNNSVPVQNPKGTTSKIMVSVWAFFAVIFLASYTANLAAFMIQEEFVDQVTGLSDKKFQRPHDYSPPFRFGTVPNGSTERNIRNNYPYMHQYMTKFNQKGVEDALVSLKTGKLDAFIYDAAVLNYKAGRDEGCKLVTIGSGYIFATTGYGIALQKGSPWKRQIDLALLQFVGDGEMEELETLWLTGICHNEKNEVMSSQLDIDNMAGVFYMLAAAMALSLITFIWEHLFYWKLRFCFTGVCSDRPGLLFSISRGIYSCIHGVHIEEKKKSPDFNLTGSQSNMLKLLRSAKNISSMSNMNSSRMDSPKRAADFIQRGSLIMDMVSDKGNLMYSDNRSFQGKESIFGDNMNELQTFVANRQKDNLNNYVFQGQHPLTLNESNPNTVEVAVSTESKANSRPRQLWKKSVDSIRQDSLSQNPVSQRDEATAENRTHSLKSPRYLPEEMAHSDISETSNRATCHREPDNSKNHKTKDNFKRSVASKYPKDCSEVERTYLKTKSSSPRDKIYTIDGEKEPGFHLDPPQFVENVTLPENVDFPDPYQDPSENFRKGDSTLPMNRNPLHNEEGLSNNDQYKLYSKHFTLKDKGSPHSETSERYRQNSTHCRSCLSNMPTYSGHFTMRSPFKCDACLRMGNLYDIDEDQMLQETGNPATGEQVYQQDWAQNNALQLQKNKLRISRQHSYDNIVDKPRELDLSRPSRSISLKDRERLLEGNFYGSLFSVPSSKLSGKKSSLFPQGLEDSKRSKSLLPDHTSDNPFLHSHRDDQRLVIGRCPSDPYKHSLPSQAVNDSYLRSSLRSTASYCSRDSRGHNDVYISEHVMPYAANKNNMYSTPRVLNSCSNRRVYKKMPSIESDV

Row | Compound | Emax (Table A-2) [%] | pEC50 (Table A-2) | Emax (Table B-2) [%] | pEC50 (Table B-2)
1 | CC[C@]1(O)CC[C@@]2(C)C(=CC[C@H]3[C@@H]4CC[C@H]([C@@H](CC[C@@](C)(O)C(F)(F)F)OC)[C@@]4(C)CC[C@@H]32)C1 [Compound A-13, (3S,8S,9S,10R,13S,14S,17S)-3-ethyl-10,13-dimethyl-17-((1R,4R)-5,5,5-trifluoro-4-hydroxy-1-methoxy-4-methylpentyl)-2,3,4,7,8,9,10,11,12,13,14,15,16,17-tetradecahydro-1H-cyclopenta[a]phenanthren-3-ol] | > 200 | 6.00 to 6.30 |  | 
2 | CC[C@]1(O)CC[C@@]2(C)C(=CC[C@H]3[C@@H]4CC[C@H]([C@@H](CC[C@](C)(O)C(F)(F)F)OC)[C@@]4(C)CC[C@@H]32)C1 [Compound A-14, (3S,8S,9S,10R,13S,14S,17S)-3-ethyl-10,13-dimethyl-17-((1R,4S)-5,5,5-trifluoro-4-hydroxy-1-methoxy-4-methylpentyl)-2,3,4,7,8,9,10,11,12,13,14,15,16,17-tetradecahydro-1H-cyclopenta[a]phenanthren-3-ol] | > 200 | 7.00 to 9.00 |  | 
3 | CC[C@]1(O)CC[C@@]2(C)C(=CC[C@H]3[C@@H]4CC[C@H]([C@@H](CC[C@@H](O)C(C)C)OC)[C@@]4(C)CC[C@@H]32)C1 [Compound A-15, (3S,8S,9S,10R,13S,14S,17S)-3-ethyl-17-((1R,4R)-4-hydroxy-1-methoxy-5-methylhexyl)-10,13-dimethyl-2,3,4,7,8,9,10,11,12,13,14,15,16,17-tetradecahydro-1H-cyclopenta[a]phenanthren-3-ol] | > 200 | 7.00 to 9.00 |  | 
4 | CC[C@]1(O)CC[C@@]2(C)C(=CC[C@H]3[C@@H]4CC[C@H]([C@@H](CC[C@H](O)C(C)C)OC)[C@@]4(C)CC[C@@H]32)C1 [Compound A-16, (3S,8S,9S,10R,13S,14S,17S)-3-ethyl-17-((1R,4S)-4-hydroxy-1-methoxy-5-methylhexyl)-10,13-dimethyl-2,3,4,7,8,9,10,11,12,13,14,15,16,17-tetradecahydro-1H-cyclopenta[a]phenanthren-3-ol] | > 200 | 7.00 to 9.00 |  | 
5 | CC[C@]1(O)CC[C@@]2(C)[C@@H](CC[C@@H]3[C@@H]2CC[C@]2(C)[C@@H]([C@H](CC[C@H](O)C(C)C)C(F)(F)F)CC[C@@H]32)C1 [Compound A-17, (3S,5S,8R,9S,10S,13S,14S,17R)-3-ethyl-10,13-dimethyl-17-((2S,5S)-1,1,1-trifluoro-5-hydroxy-6-methylheptan-2-yl)hexadecahydro-1H-cyclopenta[a]phenanthren-3-ol] |  | < 6.00 |  | 
6 | CC[C@]1(O)CC[C@@]2(C)[C@@H](CC[C@@H]3[C@@H]2CC[C@]2(C)[C@@H]([C@H](CCCC(C)(C)O)C(F)(F)F)CC[C@@H]32)C1 [Compound A-18, (3S,5S,8R,9S,10S,13S,14S,17R)-3-ethyl-10,13-dimethyl-17-((S)-1,1,1-trifluoro-6-hydroxy-6-methylheptan-2-yl)hexadecahydro-1H-cyclopenta[a]phenanthren-3-ol] |  | < 6.00 |  | 
7 | CC[C@@H](CCCC(C)(C)O)[C@H]1CC[C@H]2[C@@H]3CC[C@H]4C[C@](O)(CC)CC[C@]4(C)[C@H]3CC[C@]12C [Compound A-20, (3S,5S,8R,9S,10S,13R,14S,17R)-3-ethyl-17-((S)-7-hydroxy-7-methyloctan-3-yl)-10,13-dimethylhexadecahydro-1H-cyclopenta[a]phenanthren-3-ol] |  | < 6.00 |  | 
8 | CC[C@]1(O)CC[C@@]2(C)[C@@H](CC[C@@H]3[C@@H]2CC[C@]2(C)[C@@H]([C@@H](CC[C@@](C)(O)C(F)(F)F)OC)CC[C@@H]32)C1 [Compound A-23, (3S,5S,8R,9S,10S,13S,14S,17S)-3-ethyl-10,13-dimethyl-17-((1R,4R)-5,5,5-trifluoro-4-hydroxy-1-methoxy-4-methylpentyl) hexadecahydro-1H-cyclopenta[a]phenanthren-3-ol] |  | 6.00 to 6.30 |  | 
9 | CC[C@]1(O)CC[C@@]2(C)[C@@H](CC[C@@H]3[C@@H]2CC[C@]2(C)[C@@H]([C@@H](CC[C@](C)(O)C(F)(F)F)OC)CC[C@@H]32)C1 [Compound A-24, (3S,5S,8R,9S,10S,13S,14S,17S)-3-ethyl-10,13-dimethyl-17-((1R,4S)-5,5,5-trifluoro-4-hydroxy-1-methoxy-4-methylpentyl) hexadecahydro-1H-cyclopenta[a]phenanthren-3-ol] |  | 6.30 to 7.00 |  | 
10 | CC[C@]1(O)CC[C@@]2(C)[C@@H](CC[C@H]3[C@@H]4[C@@H]5C[C@@H]5[C@H]([C@H](C)CCCC(C)(C)O)[C@@]4(C)CC[C@@H]32)C1 [Compound B-1, (2S,4aS,4bS,6aR,7S,7aS,8aR,8bS,8cR,10aS)-2-ethyl-7-((R)-6-hydroxy-6-methylheptan-2-yl)-4a,6a-dimethyloctadecahydrocyclopropa[4,5]cyclopenta[1,2-a]phenanthren-2-ol] |  |  | > 200 | 7.00 to 9.00
11 | CC[C@]1(O)CC[C@@]2(C)[C@@H](CC[C@H]3[C@@H]4[C@@H]5C[C@@H]5[C@H]([C@H](C)CC[C@@](C)(O)C(F)(F)F)[C@@]4(C)CC[C@@H]32)C1 [Compound B-2, (2S,4aS,4bS,6aR,7S,7aS,8aR,8bS,8cR,10aS)-2-ethyl-4a,6a-dimethyl-7-((2R,5R)-6,6,6-trifluoro-5-hydroxy-5-methylhexan-2-yl)octadecahydrocyclopropa[4,5]cyclopenta[1,2-a]phenanthren-2-ol] |  |  | > 200 | 6.30 to 7.00
12 | CC[C@]1(O)CC[C@@]2(C)[C@@H](CC[C@H]3[C@@H]4[C@@H]5C[C@@H]5[C@H]([C@H](C)CC[C@](C)(O)C(F)(F)F)[C@@]4(C)CC[C@@H]32)C1 [Compound B-3, (2S,4aS,4bS,6aR,7S,7aS,8aR,8bS,8cR,10aS)-2-ethyl-4a,6a-dimethyl-7-((2R,5S)-6,6,6-trifluoro-5-hydroxy-5-methylhexan-2-yl)octadecahydrocyclopropa[4,5]cyclopenta[1,2-a]phenanthren-2-ol] |  |  | > 200 | 7.00 to 9.00
13 | CC[C@]1(O)CC[C@@]2(C)[C@@H](CC[C@H]3[C@@H]4[C@H]5C[C@H]5[C@H]([C@H](C)CCCC(C)(C)O)[C@@]4(C)CC[C@@H]32)C1 [Compound B-4, (2S,4aS,4bS,6aR,7S,7aR,8aS,8bS,8cR,10aS)-2-ethyl-7-((R)-6-hydroxy-6-methylheptan-2-yl)-4a,6a-dimethyloctadecahydrocyclopropa[4,5]cyclopenta[1,2-a]phenanthren-2-ol] |  |  | > 200 | 7.00 to 9.00
14 | CC[C@]1(O)CC[C@@]2(C)[C@@H](CC[C@H]3[C@@H]4[C@H]5C[C@H]5[C@H]([C@H](C)CC[C@](C)(O)C(F)(F)F)[C@@]4(C)CC[C@@H]32)C1 [Compound B-5, (2S,4aS,4bS,6aR,7S,7aR,8aS,8bS,8cR,10aS)-2-ethyl-4a,6a-dimethyl-7-((2R,5S)-6,6,6-trifluoro-5-hydroxy-5-methylhexan-2-yl)octadecahydrocyclopropa[4,5]cyclopenta[1,2-a]phenanthren-2-ol] |  |  | > 200 | 6.30 to 7.00
15 | CC[C@]1(O)CC[C@@]2(C)[C@@H](CC[C@H]3[C@@H]4[C@H]5C[C@H]5[C@H]([C@H](C)CCC(C)(C)O)[C@@]4(C)CC[C@@H]32)C1 [Compound B-6] |  |  | > 200 | 6.30 to 7.00
